From ChEMBL document CHEMBL3045698, “Structure and synthesis of a potent glutamate receptor antagonist in wasp venom” (Proc Natl Acad Sci U S A, 1988)
Activity calls are given as the source filed them. The rule behind the calls is not given here.

How the values were obtained:
Schistocerca gregaria [1] = assay: Inhibition of quisqualate-sensitive glutamate receptor in Schistocerca gregaria (desert locust) muscle assessed as reduction in neurally-evoked teitch contraction of locust metathoracic retractor unguis muscle at 0.1 Hz to 0.6 Hz stimulation frequency at 25 uM
Schistocerca gregaria [2] = assay: Inhibition of quisqualate-sensitive glutamate receptor in Schistocerca gregaria (desert locust) muscle assessed as reduction in glutamate-evoked teitch contraction of locust metathoracic retractor unguis muscle at 0.1 Hz to 0.6 Hz stimulation frequency at 10 uM

CCCC(=O)N[C@@H](Cc1ccc(O)cc1)C(=O)NCCCNCCCNCCCCN
inhibition (Schistocerca gregaria [1]): Active

CCCC(=O)N[C@@H](Cc1ccc(O)cc1)C(=O)NCCCNCCCCNCCCN
inhibition (Schistocerca gregaria [1]): Active

CCCC(=O)N[C@@H](Cc1ccc(O)cc1)C(=O)NCCCCNCCCNCCCN
inhibition (Schistocerca gregaria [1]): Active
inhibition (Schistocerca gregaria [2]): > 90%
